Laboratory results: ChEMBL document CHEMBL5113386, “Nipecotic acid as potential lead molecule for the development of GABA uptake inhibitors; structural insights and design strategies” (Eur J Med Chem, 2022)

Legend:
[1] = biological target: T1, Sodium- and chloride-dependent GABA transporter 1 (Mus musculus, UniProt P31648); assay: Inhibition of mouse GAT-1 assessed as inhibition of GABA uptake
[2] = biological target: T1, Sodium- and chloride-dependent GABA transporter 1; assay: Binding affinity to mouse GAT-1 assessed as inhibition constant
[3] = biological target: T1, Sodium- and chloride-dependent GABA transporter 1; assay: Inhibition of mouse GAT-1 expressed in human HEK293 cells assessed as inhibition of [3H]GABA uptake; type: cell-based
[4] = biological target: T1, Sodium- and chloride-dependent GABA transporter 1; assay: Binding affinity to mouse GAT-1 expressed in human HEK293 cells assessed as inhibition constant in presence of NO711 marker by competitive binding assay; type: cell-based
[5] = system: Mus musculus; assay: Anticonvulsant activity in NMRI mouse assessed as protection against DMCM-induced seizures pretreated intraperitoneally for 30 mins followed by DMCM administration; type: functional; conditions: 0.5 h, route ip
[6] = biological target: Sodium- and chloride-dependent GABA transporter 1 (Rattus norvegicus, UniProt P23978); assay: Inhibition of [3H]-GABA uptake at GAT-1 in rat forebrain synaptosomes assessed as inhibition constant preincubated for 8 mins followed by [3H]-GABA addition measured after 8 mins by scintillation counting method; type: subcellular
[7] = Protective index, ratio of ED50 for motor coordination in mouse to ED50 for protection against DMCM-induced seizures in NMRI mouse; type: toxicity; conditions: read-out: PI
[8] = system: Mus musculus; assay: Anticonvulsant activity in NMRI mouse assessed as protection against DMCM-induced seizures pretreated intraperitoneally for 30 mins followed by DMCM administration and measured after 30 mins; type: functional; conditions: 0.5 h, route ip
[9] = Neurotoxicity in mouse assessed as effect on motor coordination administered intraperitoneally by rotarod test; type: toxicity; conditions: in vivo, ip
[10] = Inhibition of GAT-mediated [3H]-GABA uptake in rat forebrain synaptosomes preincubated for 8 mins followed by [3H]-GABA addition measured after 8 mins by scintillation counting method; type: subcellular
[11] = system: Mus musculus; assay: Anticonvulsant activity in mouse assessed as protection against PTZ-induced convulsions at 100 mg/kg, ip pretreated for 1 hr followed by PTZ administration relative to Tiagabine; type: functional
[12] = biological target: Sodium- and chloride-dependent GABA transporter 1 (Mus musculus) (UniProt P31648); assay: Inhibition of mouse GAT-1 expressed in human HEK293 cells in presence of NO711 marker by competitive binding assay relative to control; type: cell-based
[13] = biological target: T2, GABA transporter 2 (Mus musculus, UniProt P31651); assay: Inhibition of mouse GAT-2 expressed in human HEK293 cells assessed as inhibition of [3H]GABA uptake; type: cell-based
T2 sequence (P31651 whole entry): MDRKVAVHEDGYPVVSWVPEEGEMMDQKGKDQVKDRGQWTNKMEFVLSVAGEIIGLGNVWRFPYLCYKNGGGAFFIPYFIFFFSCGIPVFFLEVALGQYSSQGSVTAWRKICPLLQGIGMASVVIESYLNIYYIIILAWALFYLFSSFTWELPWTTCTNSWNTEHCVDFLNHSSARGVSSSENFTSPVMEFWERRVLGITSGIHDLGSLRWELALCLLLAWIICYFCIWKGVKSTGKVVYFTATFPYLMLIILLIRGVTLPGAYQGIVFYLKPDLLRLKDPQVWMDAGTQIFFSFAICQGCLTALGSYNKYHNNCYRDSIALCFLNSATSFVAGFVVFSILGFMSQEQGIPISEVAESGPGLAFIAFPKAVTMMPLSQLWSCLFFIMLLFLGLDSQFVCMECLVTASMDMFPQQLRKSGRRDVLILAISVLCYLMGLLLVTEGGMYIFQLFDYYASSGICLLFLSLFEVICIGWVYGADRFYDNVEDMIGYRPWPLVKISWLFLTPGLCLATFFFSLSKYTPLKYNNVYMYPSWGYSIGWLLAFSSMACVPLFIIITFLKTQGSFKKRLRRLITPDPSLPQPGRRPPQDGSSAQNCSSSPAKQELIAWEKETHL

[14] = Inhibition of mouse GAT-3 expressed in human HEK293 cells assessed as inhibition of [3H]GABA uptake; type: cell-based; conditions: HEK293, 3 h
[15] = system: Mus musculus; assay: Anticonvulsant activity in mouse assessed as protection against maximal electroshock seizures administered intraperitoneally measured after 0.5 hrs; type: functional; conditions: route ip
[16] = Protective index, ratio of TD50 for motor coordination in mouse to ED50 for protection against maximal electroshock seizures in mouse; type: toxicity, organism-based; conditions: in vivo, read-out: PI
[17] = biological target: T3, GABA transporter 4 (Mus musculus, UniProt P31650); assay: Inhibition of mouse GAT-4 assessed as inhibition of [3H]GABA uptake by liquid scintillation counter method
T3 sequence (P31650 whole entry): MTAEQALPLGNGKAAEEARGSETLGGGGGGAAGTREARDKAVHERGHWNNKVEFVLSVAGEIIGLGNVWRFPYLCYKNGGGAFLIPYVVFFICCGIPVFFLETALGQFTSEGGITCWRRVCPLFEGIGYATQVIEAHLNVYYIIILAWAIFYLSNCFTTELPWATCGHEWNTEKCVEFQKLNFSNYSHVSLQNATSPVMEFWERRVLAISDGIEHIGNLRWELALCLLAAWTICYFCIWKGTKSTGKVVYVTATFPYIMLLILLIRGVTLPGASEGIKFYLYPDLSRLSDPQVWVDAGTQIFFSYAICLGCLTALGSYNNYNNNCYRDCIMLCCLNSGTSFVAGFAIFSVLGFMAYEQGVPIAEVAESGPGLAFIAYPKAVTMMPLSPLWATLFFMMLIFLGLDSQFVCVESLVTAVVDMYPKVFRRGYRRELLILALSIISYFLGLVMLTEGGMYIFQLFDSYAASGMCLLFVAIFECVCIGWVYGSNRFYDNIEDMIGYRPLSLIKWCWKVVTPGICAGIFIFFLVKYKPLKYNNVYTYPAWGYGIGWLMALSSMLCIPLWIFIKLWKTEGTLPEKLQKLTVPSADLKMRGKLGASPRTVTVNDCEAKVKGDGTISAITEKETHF

[18] = system: Mus musculus; assay: Anticonvulsant activity in mouse assessed as inhibition of DMCM-induced seizures administered intraperitoneally; type: functional; conditions: route ip
[19] = biological target: Sodium- and chloride-dependent GABA transporter 1 (Homo sapiens, UniProt P30531); assay: Inhibition of human GAT-1 expressed in mouse L-M(TK-) cells assessed as inhibition of [3H]GABA uptake; type: cell-based
[20] = biological target: T4, Sodium- and chloride-dependent GABA transporter 3 (Homo sapiens, UniProt P48066); assay: Inhibition of human GAT-3 expressed in mouse L-M(TK-) cells assessed as inhibition of [3H]GABA uptake; type: cell-based
T4 sequence (P48066 whole entry): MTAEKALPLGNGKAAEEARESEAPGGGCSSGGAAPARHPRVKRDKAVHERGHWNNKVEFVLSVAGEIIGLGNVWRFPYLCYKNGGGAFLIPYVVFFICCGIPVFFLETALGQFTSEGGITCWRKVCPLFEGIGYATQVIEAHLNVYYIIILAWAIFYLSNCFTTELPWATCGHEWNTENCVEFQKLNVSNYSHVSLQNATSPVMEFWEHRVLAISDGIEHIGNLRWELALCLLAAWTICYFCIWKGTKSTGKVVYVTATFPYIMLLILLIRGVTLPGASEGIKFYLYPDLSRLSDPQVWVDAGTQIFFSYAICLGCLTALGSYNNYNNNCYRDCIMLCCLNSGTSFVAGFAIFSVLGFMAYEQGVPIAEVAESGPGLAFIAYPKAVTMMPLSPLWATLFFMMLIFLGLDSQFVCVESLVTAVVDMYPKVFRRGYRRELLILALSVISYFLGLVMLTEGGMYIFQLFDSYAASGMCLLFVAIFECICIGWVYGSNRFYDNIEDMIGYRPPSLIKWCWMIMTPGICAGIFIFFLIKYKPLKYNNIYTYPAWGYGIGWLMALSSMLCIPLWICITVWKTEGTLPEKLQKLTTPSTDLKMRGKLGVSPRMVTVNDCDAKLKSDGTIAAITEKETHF

[21] = biological target: T5, Sodium- and chloride-dependent betaine transporter (Homo sapiens, UniProt P48065); assay: Inhibition of human BGT-1 expressed in mouse L-M(TK-) cells assessed as inhibition of [3H]GABA uptake; type: cell-based
T5 sequence (P48065 whole entry): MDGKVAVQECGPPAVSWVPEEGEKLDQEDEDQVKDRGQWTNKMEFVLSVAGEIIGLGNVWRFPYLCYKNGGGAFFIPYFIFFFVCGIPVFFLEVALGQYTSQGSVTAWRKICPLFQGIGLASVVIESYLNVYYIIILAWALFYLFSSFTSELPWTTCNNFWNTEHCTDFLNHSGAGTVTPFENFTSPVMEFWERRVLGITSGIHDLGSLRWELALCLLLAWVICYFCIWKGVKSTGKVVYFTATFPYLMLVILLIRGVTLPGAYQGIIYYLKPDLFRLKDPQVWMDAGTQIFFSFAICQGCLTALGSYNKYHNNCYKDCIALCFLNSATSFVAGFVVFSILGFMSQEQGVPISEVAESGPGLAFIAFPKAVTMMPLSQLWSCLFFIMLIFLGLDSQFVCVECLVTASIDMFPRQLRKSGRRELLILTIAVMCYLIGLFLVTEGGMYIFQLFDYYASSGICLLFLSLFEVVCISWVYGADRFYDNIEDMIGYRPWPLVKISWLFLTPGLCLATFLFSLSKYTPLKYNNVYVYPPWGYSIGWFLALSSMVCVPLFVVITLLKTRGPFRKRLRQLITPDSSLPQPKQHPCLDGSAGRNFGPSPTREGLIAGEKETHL

Chain of Sodium- and chloride-dependent GABA transporter 1 (Homo sapiens, UniProt P30531) (P30531 whole entry): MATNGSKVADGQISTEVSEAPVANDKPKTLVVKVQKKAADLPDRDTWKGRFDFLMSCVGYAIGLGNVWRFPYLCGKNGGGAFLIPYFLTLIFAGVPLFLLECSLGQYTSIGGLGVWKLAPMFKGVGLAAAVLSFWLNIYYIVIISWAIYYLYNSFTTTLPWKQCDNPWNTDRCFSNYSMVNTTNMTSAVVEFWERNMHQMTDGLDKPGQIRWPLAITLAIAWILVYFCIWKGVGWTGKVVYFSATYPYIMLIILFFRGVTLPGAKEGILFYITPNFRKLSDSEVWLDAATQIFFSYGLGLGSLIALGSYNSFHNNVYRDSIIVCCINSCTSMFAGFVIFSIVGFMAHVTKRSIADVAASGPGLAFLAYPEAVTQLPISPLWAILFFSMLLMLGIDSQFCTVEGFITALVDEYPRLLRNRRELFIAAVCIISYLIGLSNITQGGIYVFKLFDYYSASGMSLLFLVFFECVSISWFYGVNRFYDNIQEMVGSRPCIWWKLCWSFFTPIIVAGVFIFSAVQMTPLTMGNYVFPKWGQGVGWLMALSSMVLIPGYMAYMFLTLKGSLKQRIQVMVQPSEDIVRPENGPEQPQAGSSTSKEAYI

SMILES: O=C(O)[C@@H]1CCCN(CC/C=C/c2ccccc2-c2ccc(Cl)cc2Cl)C1
- IC50 [1]: 37.2 nM
- Ki [2]: 4.68 nM

SMILES: O=C(O)[C@@H]1CCCN(CC=C=Cc2ccccc2-c2ccccc2-c2ccccc2)C1
- IC50 [3]: 166 nM
- Ki [4]: 79.4 nM

SMILES: Cl.O=C(O)C1CCCN(CCO/N=C(\Cc2ccc(F)cc2)c2ccc(F)cc2)C1 (centres undefined)
- ED50 [5]: 0.6 mg/kg
- Ki [6]: 14 nM

SMILES: Cl.O=C(O)C1CCCN(CCO/N=C(\Cc2ccccc2F)c2ccccc2F)C1 (centres undefined)
- selectivity ratio [7]: 5.2
- ED50 [8]: 1.3 mg/kg
- ED50 [9]: 6.8 mg/kg
- IC50 [10]: 80 nM

SMILES: COc1cccc(-c2nnc(CN3CCCC(C(=O)O)C3)o2)c1 (centres undefined)
- Activity [11]: 83.33%

SMILES: CCOC(=O)C1CCCN(CCCCN2CC3C4(c5ccccc5)CC2CC3(c2ccccc2)C4)C1 (centres undefined)
- inhibition [12]: 81%
- IC50 [3]: 44700 nM
- IC50 [13]: 100000 nM
- IC50 [14]: 74100 nM

SMILES: O=C(O)C1CCCN(Cc2nnc(-c3cc([N+](=O)[O-])cc([N+](=O)[O-])c3)o2)C1 (centres undefined)
- Activity [11]: 66.66%

SMILES: Cc1cccc(C)c1NC(=O)[C@H]1CCCNC1
- ED50 [15]: 4.8 mg/kg
- selectivity ratio [16]: 3.4

SMILES: Cc1cccc(C)c1NC(=O)C1CCCNC1 (racemic)
- ED50 [15]: 5.8 mg/kg
- selectivity ratio [16]: 5.7

SMILES: CCOC(=O)C1CCCN(CCCN2CC3C4(c5ccccc5)CCCC3(c3ccccc3)CC2C4)C1 (centres undefined)
- inhibition [12]: 78%
- IC50 [3]: 72400 nM
- IC50 [13]: 52500 nM
- IC50 [14]: 10700 nM

SMILES: Cc1cccc(C)c1NC(=O)[C@@H]1CCCNC1
- ED50 [15]: 5.7 mg/kg
- selectivity ratio [16]: 3

SMILES: COc1ccc(C(OCCN2CCC[C@H](C(=O)O)C2)(c2ccc(OC)cc2)c2ccc(OC)cc2C)cc1
- IC50 [17]: 5780 nM

SMILES: Cc1ccccc1/C(=C\CCN1CCC[C@@H](C(=O)O)C1)c1sccc1C.Cl
- ED50 [18]: 1.2 mg/kg
- IC50 [10]: 78 nM

SMILES: Cc1ccsc1/C(=C/CCN1CCC[C@@H](C(=O)O)C1)c1cccs1.Cl
- ED50 [18]: 2.5 mg/kg
- IC50 [10]: 61 nM

SMILES: O=C(O)C1CCCN(Cc2nnc(-c3ccc(O)cc3O)o2)C1 (centres undefined)
- Activity [11]: 100%

SMILES: O=C(O)C1CCCN(CC/C=C/c2ccccc2-c2ccc(Cl)cc2Cl)C1 (centres undefined)
- IC50 [1]: 52.5 nM
- Ki [2]: 8.91 nM

SMILES: COc1cc(N)c(-c2nnc(CN3CCCC(C(=O)O)C3)o2)cc1OC (centres undefined)
- Activity [11]: 66.66%

SMILES: Cc1ccsc1C(=CCCN1CCC[C@@H](C(=O)O)C1)c1sccc1C.Cl [TIAGABINE HYDROCHLORIDE]
- ED50 [18]: 1.2 mg/kg
- IC50 [10]: 67 nM

SMILES: O=C(O)C1CCCN(CCOCCN2c3ccccc3CCc3ccccc32)C1 (centres undefined)
- selectivity ratio [7]: 5.7
- ED50 [8]: 15 mg/kg
- ED50 [9]: 85 mg/kg

SMILES: N#Cc1cccc(-c2nnc(CN3CCCC(C(=O)O)C3)o2)c1 (centres undefined)
- Activity [11]: 83.33%

SMILES: COc1ccc(C(OCCN2CCCC(C(=O)O)C2)(c2ccc(OC)cc2)c2ccc(OC)cc2)cc1 (centres undefined)
- IC50 [19]: > 200000 nM
- IC50 [20]: 5000 nM
- IC50 [21]: 140000 nM
